Measurements: article PMC2774768 (Journal of the American Chemical Society, 2009)

Tested on: HeLa cells
Assay: Confocal microscopy of peptide uptake and localization
Type: cell-based
Details: 1.0 μM peptide, 1 h, serum-free DMEM with 25 mM HEPES pH 7.3, fixed

| Substance | Uptake of peptide at 4 °C, fixed cells (confocal) |
| --- | --- |
| AcK(5-Fam)C(Acm)KKSRRC(Ger)-NH2 [2a] | substantial uptake of the peptide |
| AcK(5-Fam)AKKSRRC(Ger)VLL [compound 4] | still able to enter the cells |
